Key:
A. baumannii PBP2 = biological target: T1, A. baumannii PBP2 (Acinetobacter baumannii, UniProt D0C8Z9); test: Bocillin-FL fluorescence polarization competition binding assay, A. baumannii PBP2
T1 construct: made in house
T1 sequence (D0C8Z9 1-672): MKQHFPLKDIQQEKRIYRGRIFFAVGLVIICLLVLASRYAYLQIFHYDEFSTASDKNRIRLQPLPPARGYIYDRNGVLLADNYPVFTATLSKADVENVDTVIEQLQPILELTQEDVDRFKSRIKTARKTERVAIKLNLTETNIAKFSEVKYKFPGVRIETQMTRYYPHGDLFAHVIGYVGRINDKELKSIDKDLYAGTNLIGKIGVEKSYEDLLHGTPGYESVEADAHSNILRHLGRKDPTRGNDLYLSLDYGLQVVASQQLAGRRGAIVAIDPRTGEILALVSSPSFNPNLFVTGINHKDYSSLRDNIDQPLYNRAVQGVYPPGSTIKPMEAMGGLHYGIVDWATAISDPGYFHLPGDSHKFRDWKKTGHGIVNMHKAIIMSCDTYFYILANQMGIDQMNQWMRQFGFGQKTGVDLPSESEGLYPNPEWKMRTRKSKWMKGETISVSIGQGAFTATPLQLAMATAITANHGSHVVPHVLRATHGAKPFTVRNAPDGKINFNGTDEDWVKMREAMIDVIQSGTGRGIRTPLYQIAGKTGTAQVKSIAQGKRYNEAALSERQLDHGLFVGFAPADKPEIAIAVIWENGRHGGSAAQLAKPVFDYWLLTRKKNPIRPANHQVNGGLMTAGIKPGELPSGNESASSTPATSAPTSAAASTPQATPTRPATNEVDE
Text: (§1) Example I: Experimental Method for Penicillin-Binding Protein Binding Assays with Bocillin-FL Via Fluorescence Polarization
To determine the ability of boronic acid-based test PBP inhibitors to bind Penicillin Binding Proteins (PBPs), Bocillin-FL (fluorescently-labeled penicillin V; ThermoFisher Scientific) was used in a fluorescence polarization (FP) competition binding assay to assess inhibitor binding to PBP2, PBP3 or PBP4 from Escherichia coli (K12), PBP3 from Pseudomonas aeruginosa (PA01), PBP1a, PBP2 and PBP3 from Acinetobacter baumannii (ATCC 19606), and PBP2 from Neiserria gonorrheae (FA19). PBPs were cloned and purified as described previously (E. coli PBPs, King, D. T, et al., ACS Infectious Diseases 2015, 1, 175-184; P. aeruginosa PBP3, Han et. al., PNAS 2010, 107 (51), 22002-22007; A. baumannii PBPs, Penwell et. al., Antimicrob. Agents Chemother. 2015, 59 (3), 1680-1689; N. gonorrhoeae PBP2, Singh et. al., J Biol. Chem. 2019, 294 (38), 14020-14032). To establish assay conditions for competition binding, enzyme titration/saturation binding experiments were initially performed. Bocillin-FL was prepared at 0.2 μM in a buffer comprised of 50 mM Hepes (pH 8.0), 300 mM NaCl and 5% (v/v) glycerol for reactions with E. coli, P. aeruginosa and N. gonorrhoeae PBPs, and 25 mM Tris (pH 8.0), 200 mM NaCl and 10% (v/v) glycerol and 0.005% (v/v) Tween 20 for reactions with A. baumannii PBPs. Saturation binding was performed by mixing 40 μl of PBP solutions ranging in concentrations from 0-24 μM with 40 μl of the 0.2 μM Bocillin-FL solution, in individual wells of a black 384-well microplate. FP was measured immediately upon mixing (Excitation, 490 nm; Emission, 520 nm; g-factor, 0.96), using a Cytation3 (BioTek) microplate reader and measured continuously for up to 120 minutes. […] The competition binding assay (80 μl final volume) was validated using beta-lactams and PBPs at final concentrations of: 1.5 μM, E. coli PBP3; 0.75 μM, P. aeruginosa PBP3; 1 μM A. baumannii PBP1a; 2.5 μM A. baumannii PBP2; 0.2 μM A. baumannii PBP3; and […] N. gonorrhoeae PBP2. Bocillin-FL was at 0.1 μM (0.05 μM with A. baumannii PBP1a) and beta-lactam concentrations ranged from 0-1000 μM. […] Bocillin-FL was added and the FP immediately measured for up to 60 minutes (90 minutes for E. coli PBP2). […] The beta-lactam potency was reported as the concentration of beta-lactam required to reduce the amount of PBP bound-Bocillin-FL by 50% (EC50). […] Binding assays for boronic acid PBP inhibitors were performed in an identical fashion for the respective PBPs

E. coli K12 PBP2 = biological target: T2, E. coli K12 PBP2 (Escherichia coli, UniProt P0AD65); test: Bocillin-FL fluorescence polarization competition binding assay, E. coli PBP2
T2 construct: made in house
T2 sequence (P0AD65 whole entry): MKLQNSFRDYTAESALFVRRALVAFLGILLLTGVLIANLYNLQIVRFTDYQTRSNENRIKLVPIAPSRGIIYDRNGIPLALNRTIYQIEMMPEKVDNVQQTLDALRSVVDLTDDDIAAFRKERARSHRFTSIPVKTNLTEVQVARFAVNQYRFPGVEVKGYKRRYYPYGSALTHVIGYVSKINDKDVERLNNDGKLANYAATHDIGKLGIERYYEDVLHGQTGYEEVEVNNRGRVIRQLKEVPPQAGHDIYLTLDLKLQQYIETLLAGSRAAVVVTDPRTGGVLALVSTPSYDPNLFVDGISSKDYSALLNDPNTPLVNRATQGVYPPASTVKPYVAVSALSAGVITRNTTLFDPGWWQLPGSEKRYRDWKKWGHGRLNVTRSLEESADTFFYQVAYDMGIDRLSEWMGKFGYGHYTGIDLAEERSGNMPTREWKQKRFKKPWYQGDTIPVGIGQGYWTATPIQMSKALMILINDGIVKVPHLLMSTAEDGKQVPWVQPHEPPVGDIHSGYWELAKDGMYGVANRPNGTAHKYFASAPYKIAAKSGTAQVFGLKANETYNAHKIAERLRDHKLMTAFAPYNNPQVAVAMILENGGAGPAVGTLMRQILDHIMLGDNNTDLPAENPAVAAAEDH
Text: as §1
To determine the ability of boronic acid-based test PBP inhibitors to bind Penicillin Binding Proteins (PBPs), Bocillin-FL (fluorescently-labeled penicillin V; ThermoFisher Scientific) was used in a fluorescence polarization (FP) competition binding assay to assess inhibitor binding to PBP2, PBP3 or PBP4 from Escherichia coli (K12), PBP3 from Pseudomonas aeruginosa (PA01), PBP1a, PBP2 and PBP3 from Acinetobacter baumannii (ATCC 19606), and PBP2 from Neiserria gonorrheae (FA19). PBPs were cloned and purified as described previously (E. coli PBPs, King, D. T, et al., ACS Infectious Diseases 2015, 1, 175-184; P. aeruginosa PBP3, Han et. al., PNAS 2010, 107 (51), 22002-22007; A. baumannii PBPs, Penwell et. al., Antimicrob. Agents Chemother. 2015, 59 (3), 1680-1689; N. gonorrhoeae PBP2, Singh et. al., J Biol. Chem. 2019, 294 (38), 14020-14032). To establish assay conditions for competition binding, enzyme titration/saturation binding experiments were initially performed. Bocillin-FL was prepared at 0.2 μM in a buffer comprised of 50 mM Hepes (pH 8.0), 300 mM NaCl and 5% (v/v) glycerol for reactions with E. coli, P. aeruginosa and N. gonorrhoeae PBPs, and 25 mM Tris (pH 8.0), 200 mM NaCl and 10% (v/v) glycerol and 0.005% (v/v) Tween 20 for reactions with A. baumannii PBPs. Saturation binding was performed by mixing 40 μl of PBP solutions ranging in concentrations from 0-24 μM with 40 μl of the 0.2 μM Bocillin-FL solution, in individual wells of a black 384-well microplate. FP was measured immediately upon mixing (Excitation, 490 nm; Emission, 520 nm; g-factor, 0.96), using a Cytation3 (BioTek) microplate reader and measured continuously for up to 120 minutes. […] Bocillin-FL was added and the FP immediately measured for up to 60 minutes (90 minutes for E. coli PBP2). […]

CC1(C)S[C@@H]2[C@H](/N=C/N3CCCCCC3)C(=O)N2[C@H]1C(=O)O [mecillinam, reference compound]
EC50 (A. baumannii PBP2): 0.4 µM
EC50 (E. coli K12 PBP2): 2.1 µM

— patent US20230114728A1 (Venatorx Pharmaceuticals, Inc., priority 2019, published 2023)
